Assay results published in article PMC9721426, “Novel piperine-carboximidamide hybrids: design, synthesis, and antiproliferative activity via a multi-targeted inhibitory pathway” (Journal of Enzyme Inhibition and Medicinal Chemistry, 2022).

Key:
[1] = test system: MCF-7 (breast cancer cell line); test: Antiproliferative MTT assay, MCF-7; format: cell-based; settings: Homo sapiens, MCF7; MCF-7, MTT; read-out: Antiproliferative activity IC50 ± SEM, MCF-7
Method: (§1) The MTT assay was performed using various cell lines in accordance with previously reported procedures[28]^,[29] to investigate the antiproliferative potential of VIa-k. Refer to Appendix A. […]
(§2) added (in 200 μL medium to yield a final concentration of 0.1% v/v) to the wells of plates. A single compound was designated with four wells followed by incubation of […]
(§3) After incubation, medium was removed completely from the plates followed by addition of MTT (0.4 mg/mL in medium) to each well and subsequent incubation of plates for 3h. MTT (along with the medium) was removed and DMSO (150μL) was added to each well of the culture plates, followed by vortexing and subsequent measurement of absorbance (at 540 nm) using microplate reader. The data are shown as percentage inhibition of proliferation in comparison with controls containing 4.2.1.2. Assay for antiproliferative effect […]
(§4) The percentage cytotoxicity of compounds was calculated using the following […]
(§5) Where ATC= Absorbance of treated cells and AC= Absorbance of control. […]
(§6) used as positive control in the assay. […]

[2] = MTT cell viability assay on normal mammary epithelial cells; format: cell-based; settings: human, MCF-10A normal cells, 4 days incubation
Method: A human mammary gland epithelial (MCF-10A) normal cell line was used to perform the viability test. The viability of compounds VIa-k was determined using the MTT assay after 4 days of incubation with MCF-10A cells[26]^,[27].
The MTT assay was used to assess how the synthetic compounds impacted the viability of mammary epithelial cells (MCF-10A)[26]^,[27]. Appendix A. […]
4.2. Biological evaluation
4.2.1. Cytotoxic activity using MTT Assay and evaluation of IC50
MTT assay was carried out to study the effect of compounds on mammary epithelial cells (MCF-10A)26,27. The medium in which cells were propagated contained Dulbecco's modified Eagle's medium (DMEM)/ Ham's F-12 medium (1:1) supplemented with epidermal growth factor (20 ng/mL), hydrocortisone (500 ng/mL), insulin (10 μg/mL), 2 mM glutamine and 10% foetal calf serum. After every 2-3 days, the cells were passaged using trypsin ethylenediamine tetra acetic acid (EDTA). The cells were seeded at a density of 10^4 cells mL-1 in flat-bottomed culture plates containing 96 wells each. […]
A single compound was designated with four wells followed by incubation of plates for 96h at 37°C. After incubation, medium was removed completely from the plates followed by addition of MTT (0.4 mg/mL in medium) to each well and subsequent incubation of plates for 3h. MTT (along with the medium) was removed and DMSO (150μL) was added to each well of the culture plates, followed by vortexing and subsequent measurement of absorbance (at 540 nm) using microplate reader. […]

BRAF^V600E = target: T1, BRAF^V600E (Mus musculus, UniProt P28028, V585E); test: BRAF V600E kinase assay; format: biochemical; settings: read-out: BRAF^V600E inhibition IC50 ± SEM
T1 construct: Mouse full-length GST-tagged BRAFV600E; GST; purchased Invitrogen PV3849
T1 sequence (P28028 whole entry V585E): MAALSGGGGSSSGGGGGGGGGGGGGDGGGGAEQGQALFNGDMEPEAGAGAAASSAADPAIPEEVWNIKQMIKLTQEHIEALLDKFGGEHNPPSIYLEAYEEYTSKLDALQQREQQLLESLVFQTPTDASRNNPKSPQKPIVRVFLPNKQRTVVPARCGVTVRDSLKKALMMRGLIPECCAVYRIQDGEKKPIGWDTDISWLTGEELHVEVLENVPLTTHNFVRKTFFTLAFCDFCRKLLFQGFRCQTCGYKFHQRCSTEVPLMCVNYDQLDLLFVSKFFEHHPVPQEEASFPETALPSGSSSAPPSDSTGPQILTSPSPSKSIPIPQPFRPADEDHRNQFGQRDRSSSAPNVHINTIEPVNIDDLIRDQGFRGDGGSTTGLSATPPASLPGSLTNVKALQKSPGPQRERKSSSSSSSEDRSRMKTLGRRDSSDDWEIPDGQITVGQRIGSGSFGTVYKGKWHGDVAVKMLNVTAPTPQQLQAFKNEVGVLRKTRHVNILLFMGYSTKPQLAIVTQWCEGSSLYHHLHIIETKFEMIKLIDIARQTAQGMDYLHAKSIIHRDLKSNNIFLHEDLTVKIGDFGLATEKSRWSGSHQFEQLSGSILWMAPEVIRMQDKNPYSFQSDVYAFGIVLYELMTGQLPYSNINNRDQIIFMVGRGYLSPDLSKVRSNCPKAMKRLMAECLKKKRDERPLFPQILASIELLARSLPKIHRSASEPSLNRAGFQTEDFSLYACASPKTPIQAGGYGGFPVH
Method: An in vitro study was conducted to evaluate the anti-BRAF^V600E of VIc, VIf, VIg, VIi, and VIk[31]. […] An in vitro study[31] was conducted to evaluate the anti-BRAF^V600E of VIc, VIf, VIg, VIi, and Vik. See Appendix A.
4.2.1.4. BRAF kinase assay
V600E mutant BRAF kinase assay was performed to investigate the activity of the most […]
Mouse full-length GST-tagged BRAFV600E (7.5 ng, Invitrogen, PV3849) was pre-incubated with drug (1 µL) and assay dilution buffer (4 µL) for 60 min at 25 °C. In assay dilution buffer, a solution (5 µL) containing MgCl 2 (30 mM), ATP (200 µM), recombinant human full length (200 ng) […] N-terminal His-tagged MEK1 (Invitrogen) was added to start the assay, subsequent to incubation for 25 min at 25 °C. The assay was stopped using 5X protein denaturing buffer (LDS) solution (5 µL).
To further denature the protein, heat (70° C) was applied for 5 min.
NuPage gel plates (Invitrogen) were used to carry out electrophoresis (at 200 V). 10 µL of each reaction was loaded into the precast plates and electrophoresis was allowed to proceed. After completion of electrophoresis, the front part of the precast gel plate (holding hot ATP) was cut and afterw ards cast-off. The dried gel was developed using a […]
that containing no inhibitor served as positive control. […]

[3] = test system: four human cancer cell lines (Panc-1, MCF-7, HT-29, A-549); test: Antiproliferative MTT assay, average (GI50) over the four cancer cell lines; format: cell-based; settings: Homo sapiens; average of IC50 versus A-549, MCF-7, Panc-1, HT-29
Method: The average (GI50) versus the four cancer cell lines was chosen for ease of manipulation.
as §1, §2, §3, §4, §5, §6

[4] = MCF-10A mammary epithelial cells

Row | IC50 [1] | IC50 (BRAF^V600E) | GI50 [3] | SMILES | viability at 4 days, 50 µM [2, 4] | viability at 4 days, 50 µM ([2]; MCF-10A normal mammary gland epithelial cells)
1 | 47 ± 5 nM | 57 ± 6 nM | 50 nM | NC(=NOC(=O)/C=C/C=C/c1ccc2c(c1)OCO2)c1ccc(Br)cc1 [VIc, N'-{[(2E,4E)-5-(2H-1,3-Benzodioxol-5-yl)penta-2,4-dienoyl]oxy}-4-bromobenzene-1-carboximidamide] | 86% | –
2 | 43 ± 4 nM | 49 ± 5 nM | 44 nM | NC(=NOC(=O)/C=C/C=C/c1ccc2c(c1)OCO2)c1ccccc1Cl [VIf, N'-{[(2E,4E)-5-(2H-1,3-benzodioxol-5-yl)penta-2,4-dienoyl]oxy}-2-chlorobenzene-1-carboximidamide] | 90% | –
3 | 35 ± 3 nM | 40 ± 4 nM | 35 nM | N/C(=N/OC(=O)/C=C/C=C/c1ccc2c(c1)OCO2)c1ccc2c(c1)OCO2 [VIk] | – | 89%
